# Measured values reported in ChEMBL document CHEMBL1201862, “PubChem BioAssay data set” (2004).
# Active and inactive are the calls of the source.
# Key:
# Fatty acid synthase [1] = molecular target: T1, Fatty acid synthase (Homo sapiens, UniProt P49327); assay: inhibition of human FAS-TE enzyme activity – biochemical, kinetic fluorescence intensity, dose response (AID 624326); format: functional;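 further: rate of fluorescence rise from hydrolysis of a fluorogenic O-methyl fluorescein ester substrate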
# T1 sequence (P49327 whole entry, the tested form may be a part): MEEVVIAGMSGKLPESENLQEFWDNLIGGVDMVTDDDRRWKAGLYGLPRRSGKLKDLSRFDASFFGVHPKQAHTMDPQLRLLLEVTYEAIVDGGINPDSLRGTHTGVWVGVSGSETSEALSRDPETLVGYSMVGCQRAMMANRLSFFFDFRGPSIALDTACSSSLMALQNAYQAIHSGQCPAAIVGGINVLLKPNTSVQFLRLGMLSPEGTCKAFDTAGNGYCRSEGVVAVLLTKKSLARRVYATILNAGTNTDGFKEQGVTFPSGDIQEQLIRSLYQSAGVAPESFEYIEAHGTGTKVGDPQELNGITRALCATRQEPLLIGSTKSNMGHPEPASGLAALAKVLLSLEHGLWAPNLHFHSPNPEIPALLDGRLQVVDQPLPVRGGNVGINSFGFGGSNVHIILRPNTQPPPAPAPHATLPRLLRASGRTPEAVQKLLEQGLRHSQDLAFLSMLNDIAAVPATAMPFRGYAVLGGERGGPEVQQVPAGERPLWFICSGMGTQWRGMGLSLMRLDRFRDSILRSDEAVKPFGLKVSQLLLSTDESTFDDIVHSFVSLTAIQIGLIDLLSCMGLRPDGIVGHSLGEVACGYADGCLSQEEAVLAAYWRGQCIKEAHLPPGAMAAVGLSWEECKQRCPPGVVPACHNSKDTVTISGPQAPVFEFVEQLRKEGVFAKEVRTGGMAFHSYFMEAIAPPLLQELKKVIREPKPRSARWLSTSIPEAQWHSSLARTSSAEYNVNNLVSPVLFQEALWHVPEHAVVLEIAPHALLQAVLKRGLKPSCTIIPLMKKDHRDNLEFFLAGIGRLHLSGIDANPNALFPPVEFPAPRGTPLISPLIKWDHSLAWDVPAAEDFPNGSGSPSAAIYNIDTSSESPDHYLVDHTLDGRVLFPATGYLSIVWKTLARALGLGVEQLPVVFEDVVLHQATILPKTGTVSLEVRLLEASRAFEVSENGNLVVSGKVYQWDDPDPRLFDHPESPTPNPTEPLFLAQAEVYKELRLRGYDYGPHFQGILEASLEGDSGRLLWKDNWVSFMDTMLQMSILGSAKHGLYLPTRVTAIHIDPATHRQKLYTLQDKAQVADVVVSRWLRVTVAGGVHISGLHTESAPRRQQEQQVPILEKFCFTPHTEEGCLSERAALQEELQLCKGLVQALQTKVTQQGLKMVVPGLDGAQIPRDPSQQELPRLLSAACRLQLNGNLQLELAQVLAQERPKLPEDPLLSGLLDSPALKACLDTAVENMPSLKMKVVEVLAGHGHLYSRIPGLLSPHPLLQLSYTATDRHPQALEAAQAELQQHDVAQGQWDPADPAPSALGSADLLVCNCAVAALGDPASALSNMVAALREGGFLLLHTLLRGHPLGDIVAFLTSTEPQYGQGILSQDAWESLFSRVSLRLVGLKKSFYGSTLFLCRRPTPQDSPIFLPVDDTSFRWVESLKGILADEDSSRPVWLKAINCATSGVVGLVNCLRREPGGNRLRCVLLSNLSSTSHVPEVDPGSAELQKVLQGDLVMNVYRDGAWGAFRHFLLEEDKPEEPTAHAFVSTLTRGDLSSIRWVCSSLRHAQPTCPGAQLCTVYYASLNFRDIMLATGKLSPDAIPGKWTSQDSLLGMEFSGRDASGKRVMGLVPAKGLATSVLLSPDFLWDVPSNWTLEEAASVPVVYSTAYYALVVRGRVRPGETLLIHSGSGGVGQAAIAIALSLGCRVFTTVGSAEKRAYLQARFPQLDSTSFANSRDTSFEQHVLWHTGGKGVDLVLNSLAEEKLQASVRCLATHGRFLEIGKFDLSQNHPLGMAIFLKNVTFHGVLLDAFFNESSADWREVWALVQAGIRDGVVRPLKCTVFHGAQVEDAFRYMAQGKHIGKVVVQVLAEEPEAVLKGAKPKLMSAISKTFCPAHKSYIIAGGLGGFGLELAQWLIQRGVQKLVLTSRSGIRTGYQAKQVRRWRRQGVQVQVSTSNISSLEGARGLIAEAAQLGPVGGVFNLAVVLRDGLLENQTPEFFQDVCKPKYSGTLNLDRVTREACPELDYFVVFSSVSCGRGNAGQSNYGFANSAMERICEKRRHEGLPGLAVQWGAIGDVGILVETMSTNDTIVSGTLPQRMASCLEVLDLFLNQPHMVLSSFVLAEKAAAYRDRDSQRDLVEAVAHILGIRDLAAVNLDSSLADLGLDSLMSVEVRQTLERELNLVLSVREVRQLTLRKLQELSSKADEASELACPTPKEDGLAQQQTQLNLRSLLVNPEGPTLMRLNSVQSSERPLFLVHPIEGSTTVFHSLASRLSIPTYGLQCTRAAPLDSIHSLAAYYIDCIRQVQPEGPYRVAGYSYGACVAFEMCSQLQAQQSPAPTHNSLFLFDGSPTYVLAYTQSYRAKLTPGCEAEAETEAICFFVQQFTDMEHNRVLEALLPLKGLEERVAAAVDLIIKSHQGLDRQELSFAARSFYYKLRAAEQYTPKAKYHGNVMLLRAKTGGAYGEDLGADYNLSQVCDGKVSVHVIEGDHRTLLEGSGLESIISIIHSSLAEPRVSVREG
# [2] = off-target signal loss in HeLa-CEM21 co-culture – HeLa F-luc CTL cells, cherry-picked, counter-screen for HIV-1 Env fusion inhibitor project, dose response (AID 652040); format: functional, cell-based;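 further: potency for signal decrease marking cytotoxic or nonspecific inhibition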
# [3] = blockers of HIV-1 ZM109 envelope-driven cell-cell fusion – HeLa effector, CEM target cells, luciferase, cherry-pick, dose response (AID 652058); format: functional, cell-based;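 further: luciferase signal from HIV-1 Env mediated cell-cell fusion of effector and target cells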
# [4] = HIV-1 AD8 envelope cell-cell fusion blockers – cherry-pick, dose response (AID 652062); format: functional, cell-based;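 further: luciferase signal from cell-cell fusion driven by HIV-1 clade B AD8 Env; potency is for inhibitors of fusion seen as a drop in luminescence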
# [5] = blockers of HIV-1 envelope-mediated cell-cell fusion – cherry-pick, dose response (AID 652057); format: functional, cell-based
# [6] = molecular target: Induced myeloid leukemia cell differentiation protein Mcl-1 (Homo sapiens, UniProt Q07820); format: functional
# Induced myeloid leukemia cell differentiation protein Mcl-1, sequence (Q07820 whole entry): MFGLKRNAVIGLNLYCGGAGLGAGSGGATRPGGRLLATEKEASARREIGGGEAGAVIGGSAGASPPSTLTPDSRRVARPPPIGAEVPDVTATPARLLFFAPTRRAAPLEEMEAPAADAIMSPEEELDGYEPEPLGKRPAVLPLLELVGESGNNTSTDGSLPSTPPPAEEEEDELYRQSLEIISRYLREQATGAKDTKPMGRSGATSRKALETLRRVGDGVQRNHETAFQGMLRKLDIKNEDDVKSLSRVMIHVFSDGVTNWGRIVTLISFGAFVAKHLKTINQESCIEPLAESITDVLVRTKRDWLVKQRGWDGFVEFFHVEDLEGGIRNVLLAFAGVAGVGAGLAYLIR
# Fatty acid synthase [7] = molecular target: T1, Fatty acid synthase; assay: inhibition of human FAS-TE enzyme activity – biochemical, endpoint fluorescence intensity, uHTS hits, dose response (AID 624327); format: functional;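 further: fluorescence from hydrolysis of an O-methyl fluorescein acyl ester substrate by the enzyme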
# [8] = molecular target: T2, Zinc finger protein mex-5 (Caenorhabditis elegans, UniProt Q9XUB2); assay: potency of MEX-5 RNA-binding blockers – biochemical, C. elegans, fluorescence polarization, dose response (AID 1960)
# T2 sequence (Q9XUB2 whole entry): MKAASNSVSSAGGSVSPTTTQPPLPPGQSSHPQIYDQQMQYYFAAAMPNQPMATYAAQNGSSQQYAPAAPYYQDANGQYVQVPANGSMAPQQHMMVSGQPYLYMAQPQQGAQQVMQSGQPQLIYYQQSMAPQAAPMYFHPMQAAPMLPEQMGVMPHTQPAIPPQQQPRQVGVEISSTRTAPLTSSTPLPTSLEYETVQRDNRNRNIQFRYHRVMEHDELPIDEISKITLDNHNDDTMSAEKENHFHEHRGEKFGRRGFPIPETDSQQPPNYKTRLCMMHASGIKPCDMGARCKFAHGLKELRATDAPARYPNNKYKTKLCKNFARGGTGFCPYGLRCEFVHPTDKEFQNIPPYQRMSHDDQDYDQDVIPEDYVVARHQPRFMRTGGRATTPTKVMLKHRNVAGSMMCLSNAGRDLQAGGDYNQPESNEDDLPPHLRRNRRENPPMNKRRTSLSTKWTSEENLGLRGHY
# BJ [9] = assay: BJ-TERT-LT-ST fibroblast viability loss – cell-based, RAS-independent, luminescence, dose response (AID 1935); format: functional; conditions: Homo sapiens;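 further: BJ fibroblasts immortalized with TERT plus LT and ST oncogenes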
# BJ [10] = assay: BJ-TERT fibroblast viability loss – cell-based, RAS-independent, luminescence, dose response (AID 1933); format: functional; conditions: Homo sapiens
# [11] = HEK-293T viability loss after treatment – luminescence, T-cell screen hits, cytotoxicity control for TCR NF-kB inhibitor project, dose response (AID 489026); format: functional, cell-based;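 further: cells exposed to compound about 14 hours before the viability readout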
# [12] = molecular target: T3, RNA-binding protein pos-1 (Caenorhabditis elegans, UniProt G5EF15); assay: disruptors of C. elegans POS-1 RNA interaction – biochemical, fluorescence polarization, dose response (AID 1964);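 further: purified POS-1 fused to maltose binding protein made in E. coli; potency of compounds blocking POS-1 binding to fluorescent RNA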
# T3 sequence (G5EF15 whole entry): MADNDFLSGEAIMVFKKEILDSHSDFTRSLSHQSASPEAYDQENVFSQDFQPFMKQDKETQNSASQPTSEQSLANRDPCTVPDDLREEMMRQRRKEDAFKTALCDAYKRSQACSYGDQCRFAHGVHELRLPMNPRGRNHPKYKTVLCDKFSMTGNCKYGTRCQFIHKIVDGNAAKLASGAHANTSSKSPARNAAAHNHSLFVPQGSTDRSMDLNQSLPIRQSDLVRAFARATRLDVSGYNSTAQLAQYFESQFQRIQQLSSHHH
# [13] = DRD fibroblast viability loss – cell-based, non-viral oncogenic, luminescence, dose response (AID 1934); format: functional; conditions: Homo sapiens
# BJ [14] = assay: cells; format: functional, cell-based; conditions: Homo sapiens
# [15] = P. falciparum Dd2 growth inhibitors, dose response, SYBR Green, cherry-picked samples (AID 1159567); format: functional, cell-based
# Protein skinhead-1 = molecular target: T4, Protein skinhead-1 (Caenorhabditis elegans, UniProt P34707); format: functional
# T4 sequence (P34707 whole entry): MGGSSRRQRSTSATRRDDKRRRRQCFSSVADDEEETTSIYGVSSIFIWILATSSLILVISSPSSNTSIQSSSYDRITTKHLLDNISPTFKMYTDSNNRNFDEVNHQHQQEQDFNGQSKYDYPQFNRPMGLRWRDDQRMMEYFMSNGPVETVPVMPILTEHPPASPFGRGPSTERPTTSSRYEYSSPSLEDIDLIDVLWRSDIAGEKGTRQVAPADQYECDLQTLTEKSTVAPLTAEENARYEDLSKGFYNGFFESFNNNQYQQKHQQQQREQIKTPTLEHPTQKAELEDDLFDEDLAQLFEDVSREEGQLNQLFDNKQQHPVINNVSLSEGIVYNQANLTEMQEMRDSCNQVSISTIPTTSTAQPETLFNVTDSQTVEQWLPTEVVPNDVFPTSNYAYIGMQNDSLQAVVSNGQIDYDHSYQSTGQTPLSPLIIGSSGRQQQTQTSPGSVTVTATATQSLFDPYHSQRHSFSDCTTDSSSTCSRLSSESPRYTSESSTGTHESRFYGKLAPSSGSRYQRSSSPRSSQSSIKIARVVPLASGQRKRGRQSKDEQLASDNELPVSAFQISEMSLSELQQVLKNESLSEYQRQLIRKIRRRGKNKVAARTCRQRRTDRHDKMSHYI
# Cytochrome P450 2C9 = Cytochrome P450 2C9 (Homo sapiens, UniProt P11712)
# Cytochrome P450 2C9, sequence (P11712 whole entry): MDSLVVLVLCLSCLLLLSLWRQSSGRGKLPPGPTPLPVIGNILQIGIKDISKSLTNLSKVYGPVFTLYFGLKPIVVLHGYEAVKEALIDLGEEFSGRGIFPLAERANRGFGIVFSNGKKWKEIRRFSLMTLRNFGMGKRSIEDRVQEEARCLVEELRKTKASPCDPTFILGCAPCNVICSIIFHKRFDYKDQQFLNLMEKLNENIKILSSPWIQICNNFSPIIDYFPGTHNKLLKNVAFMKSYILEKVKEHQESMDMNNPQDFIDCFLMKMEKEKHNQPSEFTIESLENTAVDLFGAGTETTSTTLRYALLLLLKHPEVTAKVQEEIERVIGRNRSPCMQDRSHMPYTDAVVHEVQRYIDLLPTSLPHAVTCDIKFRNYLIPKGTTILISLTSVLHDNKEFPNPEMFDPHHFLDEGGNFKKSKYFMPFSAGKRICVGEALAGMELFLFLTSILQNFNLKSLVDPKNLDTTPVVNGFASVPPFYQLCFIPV
# [16] = viability of uninfected HEp-2 cells – cell-based, HTS, cytotoxicity control for RSV inhibitor project, dose response (AID 2410); format: functional; conditions: human respiratory syncytial virus
# [17] = fluconazole-exposed Candida albicans growth modulators – fluorescence, retest, confirmation (AID 2467); format: functional, cell-based
# [18] = NIH-3T3 fibroblast cytotoxicity, dose response, cytotoxicity control, cell-based, fluorescence, Alamar Blue, secondary assay (AID 2327); format: functional;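 further: NIH-3T3 mouse fibroblasts cultured with fluconazole at 8 µg/mL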
# Nonstructural protein 1 = Nonstructural protein 1 (Influenza A virus, UniProt Q194T2); format: functional, Influenza A virus (A/California/07/2009(H1N1))
# Nonstructural protein 1, sequence (Q194T2 whole entry): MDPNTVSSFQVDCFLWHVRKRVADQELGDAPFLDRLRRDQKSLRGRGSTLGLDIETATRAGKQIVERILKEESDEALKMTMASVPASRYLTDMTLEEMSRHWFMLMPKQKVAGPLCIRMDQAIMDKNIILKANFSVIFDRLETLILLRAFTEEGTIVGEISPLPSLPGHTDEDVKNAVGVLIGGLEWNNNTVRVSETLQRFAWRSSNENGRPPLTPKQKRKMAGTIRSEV
# [19] = system: Streptococcus sp. 'group A'; assay: Streptococcus pyogenes SK(-)GAS viability under kanamycin – luminescence, BacTiterGlo, confirmation, counter-screen for streptokinase expression inhibitor project, dose response (AID 1900); format: functional, organism-based
# Streptococcus = assay: GAS UMAA2166 growth inhibition – luminescence, BacTiterGlo, counter-screen for streptokinase expression inhibitor project, dose response (AID 1915); format: functional, organism-based;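 further: potency for reduction of bacterial viability or growth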
# [20] = luciferase reporter signal suppression in cells – H4 neuroglioma cells, luminescence, dose response (AID 1990); format: functional, cell-based
# [21] = Luminescence Cell-Based Dose Response HTS to Identify Inhibitors of 5'UTR Stem-Loop Driven Prion Protein mRNA Translation in H4 Neuroglioblastoma Cells. [Related pubchem assays: 1827 (Project Summary), 1813 (Primary HTS)]; format: functional
# [22] = alpha-synuclein stem-loop luciferase translation blockers – H4 neuroglioma cells, luminescence, confirmation (AID 1988); format: functional, cell-based
# Cytochrome P450 3A4 = Cytochrome P450 3A4 (Homo sapiens, UniProt P08684);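 further: CYP3A4 tested as one member of a cytochrome P450 panel screen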
# Cytochrome P450 3A4, sequence (P08684 whole entry): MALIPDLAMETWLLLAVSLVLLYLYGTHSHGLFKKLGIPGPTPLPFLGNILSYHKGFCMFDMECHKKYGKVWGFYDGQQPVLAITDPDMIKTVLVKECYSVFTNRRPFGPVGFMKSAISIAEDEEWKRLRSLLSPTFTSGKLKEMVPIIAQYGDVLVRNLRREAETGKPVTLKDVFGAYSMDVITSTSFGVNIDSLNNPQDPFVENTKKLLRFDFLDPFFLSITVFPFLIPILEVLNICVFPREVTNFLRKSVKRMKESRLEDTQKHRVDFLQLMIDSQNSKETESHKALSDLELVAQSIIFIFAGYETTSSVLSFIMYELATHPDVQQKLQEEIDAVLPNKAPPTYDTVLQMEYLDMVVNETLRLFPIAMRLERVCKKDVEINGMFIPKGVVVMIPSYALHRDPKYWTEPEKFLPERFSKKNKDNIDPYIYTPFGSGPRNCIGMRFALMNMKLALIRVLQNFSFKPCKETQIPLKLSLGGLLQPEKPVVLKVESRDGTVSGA
# Large T antigen = Large T antigen (Simian virus 40, UniProt P03070); format: functional, Betapolyomavirus macacae;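 further: Confirmatory-stage PubChem screen for compounds that inhibit SV40 T antigen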
# Large T antigen, sequence (P03070 whole entry): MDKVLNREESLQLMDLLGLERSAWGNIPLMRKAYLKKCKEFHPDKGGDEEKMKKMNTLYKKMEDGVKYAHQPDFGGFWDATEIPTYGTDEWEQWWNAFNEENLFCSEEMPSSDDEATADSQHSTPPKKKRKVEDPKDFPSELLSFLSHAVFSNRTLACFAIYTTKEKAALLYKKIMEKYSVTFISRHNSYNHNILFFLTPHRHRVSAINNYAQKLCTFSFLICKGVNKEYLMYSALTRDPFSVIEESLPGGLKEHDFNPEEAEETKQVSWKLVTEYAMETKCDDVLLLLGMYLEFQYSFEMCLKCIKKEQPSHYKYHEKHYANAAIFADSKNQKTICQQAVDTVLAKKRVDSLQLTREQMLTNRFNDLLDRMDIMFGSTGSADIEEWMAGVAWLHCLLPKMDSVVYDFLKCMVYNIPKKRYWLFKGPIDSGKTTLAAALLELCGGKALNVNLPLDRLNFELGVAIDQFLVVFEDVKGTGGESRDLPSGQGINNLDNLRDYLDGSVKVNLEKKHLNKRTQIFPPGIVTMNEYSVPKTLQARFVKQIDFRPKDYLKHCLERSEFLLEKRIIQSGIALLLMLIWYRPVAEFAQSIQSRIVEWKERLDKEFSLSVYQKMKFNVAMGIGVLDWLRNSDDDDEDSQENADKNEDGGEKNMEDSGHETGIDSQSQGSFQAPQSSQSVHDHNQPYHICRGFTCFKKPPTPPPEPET
smiles,measurement,setting,value
O=C(Nc1nc(-c2ccc(S(=O)(=O)N3CCCC3)cc2)cs1)c1ccco1,IC50,Fatty acid synthase [1],4.05 µM (active)
Cc1ccc2cc(C#N)c(NCCNC(=O)C3CCC3)nc2c1C,AC50,[2],11 µM (active)
same,AC50,[3],9.78 µM (active)
same,AC50,[4],8.62 µM (active)
same,AC50,[5],9.91 µM (active)
O=C(Nc1ccc(N2CCOCC2)cc1)Nc1ccc(Cl)c(Cl)c1,IC50,[6],19.5 µM (not active)
Cc1cc(C)c(NC(=O)COC(=O)c2cc([N+](=O)[O-])ccc2N2CCOCC2)c(C)c1,IC50,Fatty acid synthase [1],10.8 µM (active)
same,IC50,Fatty acid synthase [7],6.16 µM (active)
Cn1cc(/C=N/n2cnc3scc(-c4ccc(Cl)cc4)c3c2=O)c2ccccc21,EC50,[8],> 300 µM (not active)
same,EC50,BJ [9],1.1 µM (active)
same,EC50,BJ [10],1.07 µM (active)
same,IC50,[11],> 80 µM (inactive)
same,EC50,[12],> 300 µM (not active)
same,EC50,[13],0.85 µM (active)
same,EC50,BJ [14],1.77 µM (active)
CC(C)C#Cc1ccc([C@@H]2[C@@H](CO)N3C(=O)CN(C(=O)C4CCCCC4)C[C@@H]23)cc1,AC50,[15],7.36 µM (active)
N#Cc1c(N)[nH]c(C(=O)c2ccccc2)c1-c1ccc(Cl)cc1,IC50,Fatty acid synthase [1],13.3 µM (active)
same,IC50,Fatty acid synthase [7],7.39 µM (active)
CCn1c2ccccc2c2cc(NC(=O)CSc3nnc(-c4ccc(OC)c(OC)c4)n3N)ccc21,IC50,Protein skinhead-1,> 100 µM (inactive)
same,AC50,Cytochrome P450 2C9,22.4 µM (inconclusive)
same,CC50,[16],> 50 µM (active)
COc1ccc(S(=O)(=O)Nc2cccc(-c3ccc4nncn4n3)c2)cc1F,IC50,[11],> 80 µM (inactive)
CCOc1ccc2c(c1)OC(c1ccc(C)cc1)(C(F)(F)F)NC2=O (stereo unspecified),EC50,BJ [9],1.32 µM (inconclusive)
same,EC50,[17],> 38 µM (not active)
same,EC50,BJ [10],4.54 µM (inconclusive)
same,IC50,[11],> 80 µM (inactive)
same,EC50,[13],11.7 µM (inconclusive)
same,EC50,BJ [14],29.9 µM (inconclusive)
same,EC50,[18],> 160 µM (inconclusive)
O=C(NCCCn1ccnc1)C(=O)NCC(c1cccnc1)N1CCN(c2ccc(F)cc2)CC1 (stereo unspecified),IC50,Nonstructural protein 1,> 100 µM (active)
COc1ccc(N2CCN(C(=O)C3CCC(Cn4c(=S)[nH]c5ccccc5c4=O)CC3)CC2)cc1 (stereo unspecified),AC50,[4],10 µM (active)
same,IC50,Nonstructural protein 1,> 100 µM (active)
C[C@H]1CN([C@@H](C)CO)C(=O)c2c(c3ccccc3n2C)-c2ccccc2CO[C@H]1CN(C)C(=O)C1CC1,AC50,[3],0.462 µM (active)
same,AC50,[4],1.18 µM (active)
same,AC50,[5],0.362 µM (active)
CCCn1c(SCC(=O)Nc2ccccc2-c2ccccc2)nnc1-c1ccoc1C,IC50,Fatty acid synthase [1],7.42 µM (active)
same,IC50,Fatty acid synthase [7],8.34 µM (active)
COc1ccccc1CNC(=O)C[C@H]1C[C@@H]2c3cc(NC(=O)Nc4ccc(C(F)(F)F)cc4)ccc3O[C@@H]2[C@H](CO)O1,AC50,[15],6.78 µM (active)
Cc1ccc(Cn2c(C)nc3ccc([N+](=O)[O-])cc3c2=O)cc1,IC50,Fatty acid synthase [1],5.2 µM (active)
same,IC50,Fatty acid synthase [7],4.8 µM (active)
CCN(C[C@H]1N[C@@](CC)(C(=O)OC)[C@H]2C(=O)N(Cc3ccccc3)C(=O)[C@@H]12)C(=O)Nc1ccc(OC)cc1,AC50,[2],1.23 µM (active)
same,AC50,[3],0.581 µM (active)
same,AC50,[4],0.993 µM (active)
same,AC50,[5],0.421 µM (active)
O=C1CC(=O)c2c1cccc2[N+](=O)[O-],IC50,[6],3.52 µM (active)
Cc1c(N=N/C(C#N)=C(\O)c2ccccc2)c(=O)n(-c2ccccc2)n1C,EC50,[19],2.43 µM (active)
same,IC50,Nonstructural protein 1,8.08 µM (active)
same,EC50,Streptococcus,7.26 µM (active)
COc1ccc(CCNc2oc(-c3cccc4ccccc34)nc2P(=O)(OC)OC)cc1OC,AC50,[2],10.6 µM (active)
same,AC50,[3],7.26 µM (active)
same,AC50,[4],1.1 µM (active)
same,AC50,[5],5 µM (active)
O=C(CSc1n[nH]c(-c2ccccn2)n1)Nc1ccccc1,EC50,[20],> 120 µM (not active)
same,EC50,[21],> 120 µM (not active)
same,EC50,[22],> 120 µM (not active)
same,IC50,Nonstructural protein 1,5.02 µM (active)
CC(=O)c1c(O)cc2c3c1OC(C)(C)C1CCC(C)(CC31)O2 (stereo unspecified),AC50,[2],13.1 µM (active)
same,AC50,[3],1.07 µM (active)
same,AC50,[4],9.92 µM (active)
same,AC50,[5],5.16 µM (active)
O=C(NCCCCc1ccccc1)C1CC(c2ccccc2[N+](=O)[O-])=NO1 (stereo unspecified),IC50,[6],7.55 µM (not active)
same,AC50,Cytochrome P450 3A4,14.1 µM (inconclusive)
same,AC50,Cytochrome P450 2C9,31.6 µM (inconclusive)
Cn1c(=O)c(C(=O)COC(=O)c2cc(-c3ccco3)nc3ccccc23)c(N)n(Cc2ccccc2)c1=O,IC50,[6],2.02 µM (active)
Cc1ccc(S(=O)(=O)N(C)C[C@@H]2Oc3ccc(NC(=O)C4CCCCC4)cc3CC(=O)N([C@H](C)CO)C[C@@H]2C)cc1,AC50,[3],0.574 µM (active)
same,AC50,[4],2.14 µM (active)
same,AC50,[5],< 0.26 µM (active)
CCOC(=O)[C@@H]1[C@H]2COc3ccc(Br)cc3[C@@H]2N2C(=O)N(c3ccc(F)cc3)C(=O)[C@@]12C,AC50,[2],3.77 µM (active)
same,AC50,[3],5.78 µM (active)
same,AC50,[4],4.5 µM (active)
same,AC50,[5],1.72 µM (active)
CSC1=N/C(=C\c2ccccc2F)C(=O)S1,IC50,[6],24.7 µM (not active)
COc1cc(/C=C(\C#N)c2ccccn2)cc(OC)c1O,IC50,Large T antigen,14.5 µM (active)
O=C(/C=C/c1cccc([N+](=O)[O-])c1)NCCSCc1ccc(Cl)cc1Cl,IC50,Fatty acid synthase [1],9.88 µM (active)
same,IC50,Fatty acid synthase [7],10.4 µM (active)
CCS(=O)(=O)N1CCC2(CC1)CN(Cc1ccc3c(c1)OCO3)[C@@H](CO)c1[nH]c3cc(OC)ccc3c12,AC50,[15],8.27 µM (active)
